What was measured:
Type in all cases: ADME
Cytochrome P450 2E1 [1] = target: Cytochrome P450 2E1 (Homo sapiens, UniProt P05181); assay: Mechanism based inhibition of human cytochrome P450 2E1
CYP2A6 = target: T1, CYP2A6 (Homo sapiens, UniProt P11509); assay: Mechanism based inhibition of human cytochrome P450 2A6 measured by coumarin 7-hydroxylation; details: probe coumarin
T1 sequence (P11509 whole entry): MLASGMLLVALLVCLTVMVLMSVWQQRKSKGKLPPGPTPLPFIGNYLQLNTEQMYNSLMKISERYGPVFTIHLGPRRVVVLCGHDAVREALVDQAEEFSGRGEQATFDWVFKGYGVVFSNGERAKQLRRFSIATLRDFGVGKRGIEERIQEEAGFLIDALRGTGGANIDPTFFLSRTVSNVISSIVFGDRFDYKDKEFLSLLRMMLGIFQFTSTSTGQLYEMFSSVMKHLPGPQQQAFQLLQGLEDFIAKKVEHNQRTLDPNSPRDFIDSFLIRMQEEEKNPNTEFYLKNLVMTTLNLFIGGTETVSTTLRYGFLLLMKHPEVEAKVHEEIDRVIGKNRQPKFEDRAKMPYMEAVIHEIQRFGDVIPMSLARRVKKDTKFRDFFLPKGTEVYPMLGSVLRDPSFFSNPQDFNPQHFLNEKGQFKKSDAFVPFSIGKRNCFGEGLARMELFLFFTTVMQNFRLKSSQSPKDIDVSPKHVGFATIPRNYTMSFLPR

CYP1A1 = target: T2, CYP1A1 (Rattus norvegicus, UniProt P00185); assay: (§1) Mechanism based inhibition of rat cytochrome P450 CYP1A1 measured by 7-ethoxyresorufin O-deethylation (EROD); details: rat, probe 7-ethoxyresorufin (O-deethylation, EROD)
T2 sequence (P00185 whole entry): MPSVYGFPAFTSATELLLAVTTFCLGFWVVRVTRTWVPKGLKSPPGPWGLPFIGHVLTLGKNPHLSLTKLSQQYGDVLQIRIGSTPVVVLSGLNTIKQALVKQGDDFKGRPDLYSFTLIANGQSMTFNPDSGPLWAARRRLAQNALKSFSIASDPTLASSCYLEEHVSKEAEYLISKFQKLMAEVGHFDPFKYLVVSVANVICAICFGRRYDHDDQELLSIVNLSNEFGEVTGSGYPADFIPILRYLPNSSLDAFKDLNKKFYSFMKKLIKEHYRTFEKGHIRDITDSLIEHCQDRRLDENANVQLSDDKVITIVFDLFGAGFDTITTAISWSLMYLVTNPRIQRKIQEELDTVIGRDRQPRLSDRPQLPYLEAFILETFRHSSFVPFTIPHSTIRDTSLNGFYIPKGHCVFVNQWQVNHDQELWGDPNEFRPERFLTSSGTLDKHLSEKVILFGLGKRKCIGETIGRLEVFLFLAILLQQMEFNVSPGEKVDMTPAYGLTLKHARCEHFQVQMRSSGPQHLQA

Cytochrome P450 1A1 [2] = target: T3, Cytochrome P450 1A1 (Rattus norvegicus, UniProt P00185); assay: as §1
T3 sequence (P00185 whole entry): T2 sequence (P00185 whole entry)

CYP1A2 = target: T4, CYP1A2 (Rattus norvegicus, UniProt P04799); assay: (§2) Mechanism based inhibition of rat cytochrome P450 CYP1A2 measured by 7-methoxyresorufin O-demethylation (MROD); details: rat, probe 7-methoxyresorufin (O-demethylation, MROD)
T4 sequence (P04799 whole entry): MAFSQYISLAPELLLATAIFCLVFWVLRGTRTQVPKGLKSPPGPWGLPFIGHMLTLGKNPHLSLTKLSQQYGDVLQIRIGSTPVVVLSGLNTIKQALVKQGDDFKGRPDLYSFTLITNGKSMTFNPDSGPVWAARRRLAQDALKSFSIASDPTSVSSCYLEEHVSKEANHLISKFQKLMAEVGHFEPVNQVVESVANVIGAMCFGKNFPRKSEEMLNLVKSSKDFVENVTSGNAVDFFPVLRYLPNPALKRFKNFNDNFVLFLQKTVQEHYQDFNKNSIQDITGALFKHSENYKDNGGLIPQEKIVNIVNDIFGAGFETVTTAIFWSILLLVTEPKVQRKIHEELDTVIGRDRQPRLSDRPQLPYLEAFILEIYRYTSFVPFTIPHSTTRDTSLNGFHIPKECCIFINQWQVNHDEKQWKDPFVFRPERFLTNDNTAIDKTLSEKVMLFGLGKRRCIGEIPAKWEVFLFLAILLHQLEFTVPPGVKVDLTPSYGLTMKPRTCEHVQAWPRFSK

Cytochrome P450 1A2 = target: T5, Cytochrome P450 1A2 (Rattus norvegicus, UniProt P04799); assay: as §2
T5 sequence (P04799 whole entry): T4 sequence (P04799 whole entry)

CYP3A4 [3] = target: T6, CYP3A4 (Homo sapiens, UniProt P08684); assay: (§3) Mechanism based inhibition of human cytochrome P450 3A4 measured by (14C)formaldehyde production from (N-methyl-14C)-erythromycin; details: human, probe (N-methyl-14C)-erythromycin
Cytochrome P450 3A4 [4] = target: T7, Cytochrome P450 3A4 (Homo sapiens, UniProt P08684); assay: as §3
CYP3A4 [5] = target: T6, CYP3A4; assay: (§4) Mechanism based inhibition of human cytochrome P450 3A4 measured by testosterone 6-beta hydroxylation; details: human, probe testosterone (6-beta hydroxylation)
Cytochrome P450 3A4 [6] = target: T7, Cytochrome P450 3A4; assay: as §4
Cytochrome P450 1A1 [7] = target: T8, Cytochrome P450 1A1 (Homo sapiens, UniProt P04798); assay: Mechanism based inhibition of human cytochrome P450 1A1 measured by 7-ethoxyresorufin O-deethylation (EROD)
T8 sequence (P04798 whole entry): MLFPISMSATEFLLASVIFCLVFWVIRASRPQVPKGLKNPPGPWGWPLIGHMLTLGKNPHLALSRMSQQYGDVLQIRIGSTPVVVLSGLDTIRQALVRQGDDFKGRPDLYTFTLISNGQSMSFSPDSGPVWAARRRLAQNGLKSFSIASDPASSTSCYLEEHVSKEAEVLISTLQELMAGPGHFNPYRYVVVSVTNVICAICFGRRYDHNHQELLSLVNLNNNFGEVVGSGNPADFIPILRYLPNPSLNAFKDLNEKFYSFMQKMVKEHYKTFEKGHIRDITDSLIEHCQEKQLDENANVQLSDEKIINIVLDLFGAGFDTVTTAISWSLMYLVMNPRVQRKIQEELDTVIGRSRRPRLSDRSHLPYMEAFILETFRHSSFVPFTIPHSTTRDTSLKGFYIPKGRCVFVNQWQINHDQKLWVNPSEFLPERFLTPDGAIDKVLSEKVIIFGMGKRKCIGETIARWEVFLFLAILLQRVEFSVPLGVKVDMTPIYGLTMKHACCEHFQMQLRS

Cytochrome P450 2E1 [8] = target: Cytochrome P450 2E1 (Rattus norvegicus, UniProt P05182); assay: Mechanism based inhibition of rat cytochrome P450 CYP2E1
Cytochrome P450 2E1 (Rattus norvegicus, UniProt P05182), sequence (P05182 whole entry): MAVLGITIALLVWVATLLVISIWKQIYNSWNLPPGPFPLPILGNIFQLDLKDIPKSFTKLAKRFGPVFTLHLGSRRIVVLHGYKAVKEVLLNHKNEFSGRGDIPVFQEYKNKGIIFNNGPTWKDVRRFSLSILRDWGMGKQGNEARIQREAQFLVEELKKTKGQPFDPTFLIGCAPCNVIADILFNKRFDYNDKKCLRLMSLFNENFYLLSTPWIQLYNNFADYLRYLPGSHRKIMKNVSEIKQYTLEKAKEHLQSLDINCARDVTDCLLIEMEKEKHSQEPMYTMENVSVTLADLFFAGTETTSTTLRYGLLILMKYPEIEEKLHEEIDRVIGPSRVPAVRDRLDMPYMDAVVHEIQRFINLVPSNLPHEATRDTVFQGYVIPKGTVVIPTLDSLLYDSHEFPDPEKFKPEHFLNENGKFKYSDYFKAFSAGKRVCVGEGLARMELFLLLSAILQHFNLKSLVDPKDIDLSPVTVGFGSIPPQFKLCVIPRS

T7 sequence (P08684 whole entry): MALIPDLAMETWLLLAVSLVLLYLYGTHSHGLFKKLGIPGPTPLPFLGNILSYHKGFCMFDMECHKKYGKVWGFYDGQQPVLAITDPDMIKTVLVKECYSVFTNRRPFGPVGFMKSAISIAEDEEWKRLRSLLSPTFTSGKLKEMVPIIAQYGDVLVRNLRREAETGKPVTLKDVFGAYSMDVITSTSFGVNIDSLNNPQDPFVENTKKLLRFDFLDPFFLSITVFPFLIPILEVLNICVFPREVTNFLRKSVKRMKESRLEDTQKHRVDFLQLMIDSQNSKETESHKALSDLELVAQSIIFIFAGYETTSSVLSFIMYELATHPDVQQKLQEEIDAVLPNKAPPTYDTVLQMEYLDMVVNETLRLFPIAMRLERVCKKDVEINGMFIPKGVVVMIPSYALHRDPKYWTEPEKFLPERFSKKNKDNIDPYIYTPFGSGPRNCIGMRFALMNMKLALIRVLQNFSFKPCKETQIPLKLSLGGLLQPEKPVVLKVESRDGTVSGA
T6 sequence (P08684 whole entry): as above
Cytochrome P450 2E1 (Homo sapiens, UniProt P05181), sequence (P05181 whole entry): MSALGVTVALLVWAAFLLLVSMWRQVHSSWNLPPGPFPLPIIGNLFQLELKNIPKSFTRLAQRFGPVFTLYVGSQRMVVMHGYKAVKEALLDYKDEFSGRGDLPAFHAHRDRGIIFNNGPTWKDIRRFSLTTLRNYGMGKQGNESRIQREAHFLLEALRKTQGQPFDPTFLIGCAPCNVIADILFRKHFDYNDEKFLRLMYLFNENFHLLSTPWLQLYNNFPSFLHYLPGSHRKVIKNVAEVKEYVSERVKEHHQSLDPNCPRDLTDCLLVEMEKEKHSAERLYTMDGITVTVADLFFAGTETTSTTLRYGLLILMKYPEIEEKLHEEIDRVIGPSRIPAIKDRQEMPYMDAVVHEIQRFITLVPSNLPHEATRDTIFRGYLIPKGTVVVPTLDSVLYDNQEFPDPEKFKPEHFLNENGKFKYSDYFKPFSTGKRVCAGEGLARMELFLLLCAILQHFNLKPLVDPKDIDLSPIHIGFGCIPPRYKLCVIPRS

COc1cc(CNC(=O)CCCC/C=C/C(C)C)ccc1O [CAPSAICIN]
mechanism based inhibition (Cytochrome P450 2E1 [1]): Cytochrome P450 mechanistic inhibitor: PMID 7746093

CN1CCC[C@H]1c1cccnc1 [NICOTINE]
kinact (CYP2A6): 1.18 s⁻¹

C#Cc1ccc(-c2ccccc2)cc1
kinact (CYP1A1): 0.001 s⁻¹
Ki (Cytochrome P450 1A1 [2]): 270 nM
kinact (CYP1A2): 0.00167 s⁻¹
Ki (Cytochrome P450 1A2): 870 nM

O=C1OC[C@H](Cc2ccc3c(c2)OCO3)[C@H]1Cc1ccc2c(c1)OCO2 [HINOKININ]
kinact (CYP3A4 [3]): 0.00525 s⁻¹
Ki (Cytochrome P450 3A4 [4]): 373 nM

CC#CCCCc1ccccc1
kinact (CYP1A1): 0.00833 s⁻¹
Ki (Cytochrome P450 1A1 [2]): 540 nM

CC(C)CN(C[C@@H](O)[C@H](Cc1ccccc1)NC(=O)[C@@H](NC(=O)CNCc1cccc(F)c1)C(C)(C)C)S(=O)(=O)c1cccc(N)c1
kinact (CYP3A4 [5]): 0.00367 s⁻¹
Ki (Cytochrome P450 3A4 [6]): 240 nM

Oc1ccc(/C=C/c2cc(O)cc(O)c2)cc1 [RESVERATROL]
mechanism based inhibition (Cytochrome P450 3A4 [6]): Cytochrome P450 mechanistic inhibitor: PMID 11701226
mechanism based inhibition (Cytochrome P450 1A1 [7]): Cytochrome P450 mechanistic inhibitor: PMID 11259321

CNCCCC(C#N)(c1ccc(OC)c(OC)c1)C(C)C (configuration not stated)
kinact (CYP3A4 [5]): 0.00117 s⁻¹
Ki (Cytochrome P450 3A4 [6]): 7930 nM

OC[C@H](Cc1ccc2c(c1)OCO2)[C@H](CO)Cc1ccc2c(c1)OCO2 [DIHYDROCUBEBIN]
kinact (CYP3A4 [3]): 0.00375 s⁻¹
Ki (Cytochrome P450 3A4 [4]): 142 nM

C=C[C@]1(C)C[C@@H](OC(=O)CSCCN(CC)CC)[C@]2(C)[C@H](C)CC[C@]3(CCC(=O)[C@H]32)[C@@H](C)[C@@H]1O [TIAMULIN]
mechanism based inhibition (Cytochrome P450 3A4 [6]): Cytochrome P450 mechanistic inhibitor: PMID 7575636

ClC=C(Cl)Cl [TRICHLOROETHYLENE]
mechanism based inhibition (Cytochrome P450 2E1 [8]): Cytochrome P450 mechanistic inhibitor: PMID 9851676

C/C=C\Cl.Cl/C=C\Cl
mechanism based inhibition (Cytochrome P450 2E1 [8]): Cytochrome P450 mechanistic inhibitor: PMID 9851676

O=c1c2ccccc2nc2n1CCc1c-2[nH]c2ccccc12 [RUTAECARPINE]
kinact (CYP3A4 [3]): 0.00645 s⁻¹
Ki (Cytochrome P450 3A4 [4]): 108000 nM

COc1cc(C[C@H]2C(O)OC[C@@H]2Cc2ccc3c(c2)OCO3)cc(OC)c1OC (some centres not stated)
kinact (CYP3A4 [3]): 0.00422 s⁻¹
Ki (Cytochrome P450 3A4 [4]): 82 nM

Cn1cccc1-c1cccnc1 [NICOTYRINE]
kinact (CYP2A6): 0.104 s⁻¹

CC#Cc1ccc2ccccc2c1
mechanism based inhibition (Cytochrome P450 1A1 [2]; rat): Cytochrome P450 mechanistic inhibitor: PMID 9074808

Reference: ChEMBL document CHEMBL1743341, “Cytochrome p450 enzymes mechanism based inhibitors: common sub-structures and reactivity” (Curr Drug Metab, 2005)
